Values quoted from earlier work in US20190328869A1, “IMMUNOTHERAPEUTIC PRODUCT AND MDSC MODULATOR COMBINATION THERAPY” (Transgene SA, priority 2016, published 2019).

What was measured:
[1] = system: circulating CD34+ MDSCs; conditions: head and neck cancer patients; cited from earlier work
[2] = system: circulating CD33+HLA-DR− MDSCs; conditions: patients with metastatic renal cell carcinoma; cited from earlier work
[3] = system: HBV-specific CD4+ and CD8+ T cells in PBMCs; conditions: PBMCs from chronically HBV infected patients; cited from earlier work

SMILES	circulating CD34+ MDSCs [1]	clinical outcome [1]	circulating CD33+HLA-DR− MDSCs [2]	proliferation and IFN-γ production by HBV-specific CD4+ and CD8+ T cells [3]
C=C1CC[C@H](O)C/C1=C/C=C1\CCC[C@]2(C)[C@@H]([C@H](C)CCCC(C)(C)O)CC[C@@H]12 [25-hydroxyvitamin D3]	reduced the circulating CD34^+ MDSCs	failed to improve clinical outcome	–	–
CC1=C(/C=C/C(C)=C/C=C/C(C)=C/C(=O)O)C(C)(C)CCC1 [ATRA, All-trans retinoic acid]	–	–	decreased circulating CD33^+HLA-DR^− MDSCs	restore the proliferation and IFN-γ production
